Among the data in BindingDB's records for doi:10.1021/acs.jmedchem.9b01143 (2019) are IC50 values, retold here.

Each structure is given as a SMILES string.

The target of this test is Activin receptor type-2A (ACVR2A) (Homo sapiens) (UniProt P27037). In words: Inhibition of human recombinant ACTR2 (162 to end residues) using casein as substrate incubated for 120 mins in presence of [gamma-33P]ATP by radiometric scintillation counting analysis.

As a reminder, the IC50 is the concentration that gives 50% inhibition. Turning to `CN(C)c1ccc(C(=O)Nc2cccc(NC(=O)COc3ccc4c(=O)ccoc4c3)c2)cc1`, the IC50 is > 10 µM.
